{"source": "PubChem BioAssay AID1259409", "about": "(Chemical Carcinogenesis Research Information System (CCRIS), 2018)", "origin": "cited, not measured here", "system": "rodent chemically induced tumor inhibition, incidence and multiplicity", "experiment": "CCRIS tumor inhibitor studies", "details": "Dose [Inhibitor]: 0, Route [Inhibitor]: ORAL, Species: RAT, Strain/Sex: F344/MALE, Promoter: NONE USED"}
{"smiles": "O=C(O)c1ccc(O)c(O)c1", "values": [{"measurement": "tumour outcome (control, treated, inhibition, significance)", "setting": "Carcinogen: AZOXYMETHANE, 25843-45-2, 1000 PPM IN DIET FOR 28 WK BEGINNING 1 WK POST CARCINOGEN TREATMENT (STUDY DURATION: 32 WK), Target Tissue: Type of Lesion: LARGE INTESTINE: ADENOMA, Dose [Carcinogen]: 15 MG/KG BW 1/WK FOR 3 WK", "value": "2/20 (10%), 2/23 (9%), 10%, not significant"}, {"measurement": "tumour outcome (control, treated, inhibition, significance)", "setting": "Carcinogen: AZOXYMETHANE, 25843-45-2, 1000 PPM IN DIET FOR 28 WK BEGINNING 1 WK POST CARCINOGEN TREATMENT (STUDY DURATION: 32 WK), Target Tissue: Type of Lesion: SMALL INTESTINE: ADENOCARCINOMA, Dose [Carcinogen]: 15 MG/KG BW 1/WK FOR 3 WK", "value": "6/20 (30%), 2/23 (9%), 70%, not significant"}, {"measurement": "tumour outcome (control, treated, inhibition, significance)", "setting": "Carcinogen: AZOXYMETHANE, 25843-45-2, 1000 PPM IN DIET FOR 28 WK BEGINNING 1 WK POST CARCINOGEN TREATMENT (STUDY DURATION: 32 WK), Target Tissue: Type of Lesion: SMALL INTESTINE: ADENOMA, Dose [Carcinogen]: 15 MG/KG BW 1/WK FOR 3 WK", "value": "1/20 (5%), 1/23 (4%), 20%, not significant"}, {"measurement": "tumour outcome (control, treated, inhibition, significance)", "setting": "Carcinogen: DIETHYLNITROSAMINE, 55-18-5, 500 PPM IN DIET BEGINNING 1 WK PRIOR TO CARCINOGEN AND CONTINUING FOR 7 WK FOLLOWED BY BASAL DIET FOR 30 WK (STUDY DU, Target Tissue: Type of Lesion: LIVER: ADENOMA OR CARCINOMA, Dose [Carcinogen]: 40 PPM IN DRINKING WATER FOR 5 WK BEGINNING AT 7 WK OF AGE", "value": "18/18 (100%), 12/17 (71%), 29%, p=0.02"}, {"measurement": "tumour outcome (control, treated, inhibition, significance)", "setting": "Carcinogen: DIETHYLNITROSAMINE, 55-18-5, 500 PPM IN DIET FOR 7 WK BEGINNING 1 WK PRIOR TO CARCINOGEN TREATMENT (STUDY DURATION: 37 WK), Target Tissue: Type of Lesion: LIVER: ADENOMA, Dose [Carcinogen]: 40 PPM IN DRINKING WATER FOR 5 WK", "value": "89%, 59%, 34%, not significant"}, {"measurement": "tumour outcome (control, treated, inhibition, significance)", "setting": "Carcinogen: DIETHYLNITROSAMINE, 55-18-5, 500 PPM IN DIET FOR 7 WK BEGINNING 1 WK PRIOR TO CARCINOGEN TREATMENT (STUDY DURATION: 37 WK), Target Tissue: Type of Lesion: LIVER: CARCINOMA, Dose [Carcinogen]: 40 PPM IN DRINKING WATER FOR 5 WK", "value": "89%, 71%, 20%, not significant"}, {"measurement": "tumour outcome (control, treated, inhibition, significance)", "setting": "Carcinogen: DIETHYLNITROSAMINE, 55-18-5, 500 PPM IN DIET FOR 30 WK BEGINNING 1 WK POST CARCINOGEN TREATMENT (STUDY DURATION: 37 WK), Target Tissue: Type of Lesion: LIVER: ADENOMA, Dose [Carcinogen]: 40 PPM IN DRINKING WATER FOR 5 WK", "value": "89%, 60%, 33%, p<0.05"}, {"measurement": "tumour outcome (control, treated, inhibition, significance)", "setting": "Carcinogen: DIETHYLNITROSAMINE, 55-18-5, 1000 PPM IN DIET FOR 7 WK BEGINNING 1 WK PRIOR TO CARCINOGEN TREATMENT (STUDY DURATION: 37 WK), Target Tissue: Type of Lesion: LIVER: ADENOMA, Dose [Carcinogen]: 40 PPM IN DRINKING WATER FOR 5 WK", "value": "89%, 37%, 58%, p<0.05"}, {"measurement": "tumour outcome (control, treated, inhibition, significance)", "setting": "Carcinogen: DIETHYLNITROSAMINE, 55-18-5, 1000 PPM IN DIET FOR 30 WK BEGINNING 1 WK POST CARCINOGEN TREATMENT (STUDY DURATION: 37 WK), Target Tissue: Type of Lesion: LIVER: ADENOMA, Dose [Carcinogen]: 40 PPM IN DRINKING WATER FOR 5 WK", "value": "89%, 68%, 24%, not significant"}, {"measurement": "tumour outcome (control, treated, inhibition, significance)", "setting": "Carcinogen: DIETHYLNITROSAMINE, 55-18-5, 1000 PPM IN DIET FOR 30 WK BEGINNING 1 WK POST CARCINOGEN TREATMENT (STUDY DURATION: 37 WK), Target Tissue: Type of Lesion: LIVER: CARCINOMA, Dose [Carcinogen]: 40 PPM IN DRINKING WATER FOR 5 WK", "value": "89%, 32%, 64%, p<0.05"}, {"measurement": "tumour outcome (control, treated, inhibition, significance)", "setting": "Carcinogen: N-BUTYL-N-(4-HYDROXYBUTYL)NITROSAMINE, 3817-11-6, 500 PPM IN DIET FOR 8 WK BEGINNING 1 WK PRIOR TO CARCINOGEN TREATMENT (STUDY DURATION: 41 WK), Target Tissue: Type of Lesion: BLADDER: CARCINOMA, Dose [Carcinogen]: 0.05% IN DRINKING WATER FOR 6 WK", "value": "17/22 (77%), 13/22 (59%), 23%, not significant"}, {"measurement": "tumour outcome (control, treated, inhibition, significance)", "setting": "Carcinogen: N-BUTYL-N-(4-HYDROXYBUTYL)NITROSAMINE, 3817-11-6, 500 PPM IN DIET FOR 8 WK BEGINNING 1 WK PRIOR TO CARCINOGEN TREATMENT (STUDY DURATION: 41 WK), Target Tissue: Type of Lesion: BLADDER: PAPILLOMA, Dose [Carcinogen]: 0.05% IN DRINKING WATER FOR 6 WK", "value": "1/22 (5%), 3/22 (14%), -180%, not significant"}, {"measurement": "tumour outcome (control, treated, inhibition, significance)", "setting": "Carcinogen: N-BUTYL-N-(4-HYDROXYBUTYL)NITROSAMINE, 3817-11-6, 500 PPM IN DIET FOR 33 WK BEGINNING 1 WK POST CARCINOGEN TREATMENT (STUDY DURATION: 41 WK), Target Tissue: Type of Lesion: BLADDER: CARCINOMA, Dose [Carcinogen]: 0.05% IN DRINKING WATER FOR 6 WK", "value": "17/22 (77%), 13/25 (52%), 32%, not significant"}, {"measurement": "tumour outcome (control, treated, inhibition, significance)", "setting": "Carcinogen: N-BUTYL-N-(4-HYDROXYBUTYL)NITROSAMINE, 3817-11-6, 500 PPM IN DIET FOR 33 WK BEGINNING 1 WK POST CARCINOGEN TREATMENT (STUDY DURATION: 41 WK), Target Tissue: Type of Lesion: BLADDER: PAPILLOMA, Dose [Carcinogen]: 0.05% IN DRINKING WATER FOR 6 WK", "value": "1/22 (5%), 4/25 (16%), -220%, not significant"}, {"measurement": "tumour outcome (control, treated, inhibition, significance)", "setting": "Carcinogen: N-BUTYL-N-(4-HYDROXYBUTYL)NITROSAMINE, 3817-11-6, 1000 PPM IN DIET FOR 8 WK BEGINNING 1 WK PRIOR TO CARCINOGEN TREATMENT (STUDY DURATION: 41 WK), Target Tissue: Type of Lesion: BLADDER: CARCINOMA, Dose [Carcinogen]: 0.05% IN DRINKING WATER FOR 6 WK", "value": "17/22 (77%), 9/22 (41%), 47%, p<0.03"}, {"measurement": "tumour outcome (control, treated, inhibition, significance)", "setting": "Carcinogen: N-BUTYL-N-(4-HYDROXYBUTYL)NITROSAMINE, 3817-11-6, 1000 PPM IN DIET FOR 8 WK BEGINNING 1 WK PRIOR TO CARCINOGEN TREATMENT (STUDY DURATION: 41 WK), Target Tissue: Type of Lesion: BLADDER: PAPILLOMA, Dose [Carcinogen]: 0.05% IN DRINKING WATER FOR 6 WK", "value": "1/22 (5%), 0/22 (0%), 100%, not significant"}, {"measurement": "tumour outcome (control, treated, inhibition, significance)", "setting": "Carcinogen: N-BUTYL-N-(4-HYDROXYBUTYL)NITROSAMINE, 3817-11-6, 1000 PPM IN DIET FOR 33 WK BEGINNING 1 WK POST CARCINOGEN TREATMENT (STUDY DURATION: 41 WK), Target Tissue: Type of Lesion: BLADDER: CARCINOMA, Dose [Carcinogen]: 0.05% IN DRINKING WATER FOR 6 WK", "value": "17/22 (77%), 12/25 (48%), 38%, p<0.05"}, {"measurement": "tumour outcome (control, treated, inhibition, significance)", "setting": "Carcinogen: N-BUTYL-N-(4-HYDROXYBUTYL)NITROSAMINE, 3817-11-6, 1000 PPM IN DIET FOR 33 WK BEGINNING 1 WK POST CARCINOGEN TREATMENT (STUDY DURATION: 41 WK), Target Tissue: Type of Lesion: BLADDER: PAPILLOMA, Dose [Carcinogen]: 0.05% IN DRINKING WATER FOR 6 WK", "value": "1/22 (5%), 2/25 (8%), -60%, not significant"}, {"measurement": "tumour outcome (control, treated, inhibition, significance)", "setting": "Carcinogen: N-BUTYL-N-(4-HYDROXYBUTYL)NITROSAMINE, 3817-11-6, 2000 PPM IN DIET FOR 8 WK BEGINNING 1 WK PRIOR TO CARCINOGEN TREATMENT (STUDY DURATION: 41 WK), Target Tissue: Type of Lesion: BLADDER: CARCINOMA, Dose [Carcinogen]: 0.05% IN DRINKING WATER FOR 6 WK", "value": "17/22 (77%), 8/25 (32%), 58%, p<0.005"}, {"measurement": "tumour outcome (control, treated, inhibition, significance)", "setting": "Carcinogen: N-BUTYL-N-(4-HYDROXYBUTYL)NITROSAMINE, 3817-11-6, 2000 PPM IN DIET FOR 8 WK BEGINNING 1 WK PRIOR TO CARCINOGEN TREATMENT (STUDY DURATION: 41 WK), Target Tissue: Type of Lesion: BLADDER: PAPILLOMA, Dose [Carcinogen]: 0.05% IN DRINKING WATER FOR 6 WK", "value": "1/22 (5%), 3/25 (12%), -140%, not significant"}]}
